{"source": "patent US7396837B2", "about": "“Antitumoral analogs of lamellarins” (Pharma Mar, S.A.U., priority 2002, dated 2008)", "assay_type_in_all_cases": "cell-based", "key": {"K-562": {"test_system": "K-562", "test": "SRB colorimetric cell growth inhibition assay, K-562", "conditions": "Homo sapiens, K562, K-562", "from_the_text": "(§1) The finality of these assays is to interrupt the growth of an “in vitro” tumor cell culture by means a continued exhibition of the cells to the sample to be testing.\n(§2) A colorimetric type of assay, using sulforhodamine B (SRB) reaction has been adapted for a quantitative measurement of cell growth and viability (following the technique described by P. A. Skehan, et al., J. Natl. Cancer Inst. 1990, 82, 1107-1112).\n(§3) This form of assay employs 96 well cell culture microplates of 9 mm diameter (T. Mosmann et al., J. of Immunological Methods 1983, 65, 55-63; G. T. Faircloth et al., J. of Tissue and Culture Methods 1988, 11, 201-205).\n(§4) Most of the cell lines are obtained from American Type Culture Collection (ATCC) derived from different human cancer types.\n(§5) The values for mean +/− SD of data from triplicate wells are calculated. Some parameters for cellular responses can be calculated: GI=growth inhibition, TGI=total growth inhibition (cytostatic effect) and LC=cell killing (cytotoxic effect)."}, "A-549": {"test_system": "A-549", "test": "SRB colorimetric cell growth inhibition assay, A-549", "conditions": "Homo sapiens, A549, A-549", "method_in_brief": "(§6)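 Human tumour cells continuously exposed to compound in 96-well culture; growth and viability quantified colorimetrically by sulforhodamine B staining. Mean ± SD from triplicate wells; GI (growth inhibition), TGI (total growth inhibition, cytostatic) and LC (cell killing, cytotoxic) parameters derived.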"}, "SK-MEL-28": {"test_system": "SK-MEL-28", "test": "SRB colorimetric cell growth inhibition assay, SK-MEL-28", "conditions": "Homo sapiens, SK-MEL-28, MEL-28", "method_in_brief": "as §6"}, "HT-29": {"test_system": "HT-29", "test": "SRB colorimetric cell growth inhibition assay, HT-29", "conditions": "Homo sapiens, HT-29, HT-29", "method_in_brief": "as §6"}, "LoVo": {"test_system": "LoVo", "test": "SRB colorimetric cell growth inhibition assay, LoVo", "conditions": "Homo sapiens, LoVo", "method_in_brief": "as §6"}, "LoVo-Dox": {"test_system": "LoVo-Dox", "test": "SRB colorimetric cell growth inhibition assay, LoVo-Dox (MDR)", "conditions": "Homo sapiens, LOVO-DOX", "method_in_brief": "as §6"}, "DU-145": {"test_system": "DU-145", "test": "SRB colorimetric cell growth inhibition assay, DU-145", "conditions": "Homo sapiens, DU-145, DU-145", "method_in_brief": "as §6"}, "LNCaP": {"test_system": "LNCaP", "test": "SRB colorimetric cell growth inhibition assay, LNCaP", "conditions": "Homo sapiens, LNCaP, LN-caP", "from_the_text": "as §1, §2, §3, §4, §5"}, "SK-BR-3": {"test_system": "SK-BR-3", "test": "SRB colorimetric cell growth inhibition assay, SK-BR-3", "conditions": "Homo sapiens, SK-BR-3, SK-BR-3", "method_in_brief": "as §6"}, "IGROV": {"test_system": "IGROV", "test": "SRB colorimetric cell growth inhibition assay, IGROV", "conditions": "Homo sapiens, IGROV", "method_in_brief": "as §6"}, "IGROV-ET": {"test_system": "IGROV-ET", "test": "SRB colorimetric cell growth inhibition assay, IGROV-ET (ET-743 resistant)", "conditions": "Homo sapiens, IGROV-ET", "method_in_brief": "as §6"}, "HeLa": {"test_system": "HeLa", "test": "SRB colorimetric cell growth inhibition assay, HeLa", "conditions": "Homo sapiens, HeLa", "method_in_brief": "as §6"}, "HeLa-APL": {"test_system": "HeLa-APL", "test": "SRB colorimetric cell growth inhibition assay, HeLa-APL (aplidine resistant)", "conditions": "Homo sapiens, HELA-APL", "method_in_brief": "as §6"}, "PANC-1": {"test_system": "PANC-1", "test": "SRB colorimetric cell growth inhibition assay, PANC-1", "conditions": "Homo sapiens, PANC-1, PANC-1", "method_in_brief": "as §6"}}}
{"smiles": "COc1cc(-c2c3c4cc(OC)c(OC(=O)[C@H](C)NC(=O)[C@H](C)N)cc4oc(=O)c3n3ccc4c(OC(=O)[C@H](C)NC(=O)[C@H](C)N)c(OC)c(OC)cc4c23)ccc1OC(=O)[C@H](C)NC(=O)[C@H](C)N", "note": "[Compound 5]", "values": [{"measurement": "GI50", "setting": "K-562; GI=growth inhibition, read-out: GI50 K-562", "value": 0.077, "unit": "µM"}, {"measurement": "CC50", "setting": "K-562; cell killing (cytotoxic effect), read-out: LC50 K-562", "value": 7.4, "unit": "µM"}, {"measurement": "IC (TGI)", "setting": "K-562; total growth inhibition (cytostatic effect), read-out: TGI K-562", "value": 1.1, "unit": "µM"}, {"measurement": "GI50", "setting": "A-549; GI=growth inhibition, read-out: GI50 A-549", "value": 0.121, "unit": "µM"}, {"measurement": "CC50", "setting": "A-549; cell killing (cytotoxic effect), read-out: LC50 A-549", "value": 4.65, "unit": "µM"}, {"measurement": "IC (TGI)", "setting": "A-549; total growth inhibition (cytostatic effect), read-out: TGI A-549", "value": 1.02, "unit": "µM"}, {"measurement": "GI50", "setting": "SK-MEL-28; GI=growth inhibition, read-out: GI50 MEL-28", "value": 0.0629, "unit": "µM"}, {"measurement": "CC50", "setting": "SK-MEL-28; cell killing (cytotoxic effect), read-out: LC50 MEL-28", "value": 1.12, "unit": "µM"}, {"measurement": "IC (TGI)", "setting": "SK-MEL-28; total growth inhibition (cytostatic effect), read-out: TGI MEL-28", "value": 0.249, "unit": "µM"}, {"measurement": "GI50", "setting": "HT-29; GI=growth inhibition, read-out: GI50 HT-29", "value": 1.7, "unit": "µM"}, {"measurement": "CC50", "setting": "HT-29; cell killing (cytotoxic effect), read-out: LC50 HT-29", "value": 6.16, "unit": "µM"}, {"measurement": "IC (TGI)", "setting": "HT-29; total growth inhibition (cytostatic effect), read-out: TGI HT-29", "value": 3.24, "unit": "µM"}, {"measurement": "GI50", "setting": "LoVo; GI=growth inhibition, read-out: GI50 LOVO", "value": 0.345, "unit": "µM"}, {"measurement": "CC50", "setting": "LoVo; cell killing (cytotoxic effect), read-out: LC50 LOVO", "value": 4.14, "unit": "µM"}, {"measurement": "IC (TGI)", "setting": "LoVo; total growth inhibition (cytostatic effect), read-out: TGI LOVO", "value": 1.06, "unit": "µM"}, {"measurement": "GI50", "setting": "LoVo-Dox; GI=growth inhibition, read-out: GI50 LOVO-DOX", "value": 0.409, "unit": "µM"}, {"measurement": "CC50", "setting": "LoVo-Dox; cell killing (cytotoxic effect), read-out: LC50 LOVO-DOX", "value": 3.4, "unit": "µM"}, {"measurement": "IC (TGI)", "setting": "LoVo-Dox; total growth inhibition (cytostatic effect), read-out: TGI LOVO-DOX", "value": 1.1, "unit": "µM"}, {"measurement": "GI50", "setting": "DU-145; GI=growth inhibition, read-out: GI50 DU-145", "value": 0.0356, "unit": "µM"}, {"measurement": "CC50", "setting": "DU-145; cell killing (cytotoxic effect), read-out: LC50 DU-145", "value": 0.575, "unit": "µM"}, {"measurement": "IC (TGI)", "setting": "DU-145; total growth inhibition (cytostatic effect), read-out: TGI DU-145", "value": 0.119, "unit": "µM"}, {"measurement": "GI50", "setting": "LNCaP; GI=growth inhibition, read-out: GI50 LN-caP", "value": 0.223, "unit": "µM"}, {"measurement": "CC50", "setting": "LNCaP; cell killing (cytotoxic effect), read-out: LC50 LN-caP", "value": 3.62, "unit": "µM"}, {"measurement": "IC (TGI)", "setting": "LNCaP; total growth inhibition (cytostatic effect), read-out: TGI LN-caP", "value": 1.05, "unit": "µM"}, {"measurement": "GI50", "setting": "SK-BR-3; GI=growth inhibition, read-out: GI50 SK-BR-3", "value": 0.241, "unit": "µM"}, {"measurement": "CC50", "setting": "SK-BR-3; cell killing (cytotoxic effect), read-out: LC50 SK-BR-3", "value": 3.54, "unit": "µM"}, {"measurement": "IC (TGI)", "setting": "SK-BR-3; total growth inhibition (cytostatic effect), read-out: TGI SK-BR-3", "value": 0.595, "unit": "µM"}, {"measurement": "GI50", "setting": "IGROV; GI=growth inhibition, read-out: GI50 IGROV", "value": 0.247, "unit": "µM"}, {"measurement": "CC50", "setting": "IGROV; cell killing (cytotoxic effect), read-out: LC50 IGROV", "value": 4.54, "unit": "µM"}, {"measurement": "IC (TGI)", "setting": "IGROV; total growth inhibition (cytostatic effect), read-out: TGI IGROV", "value": 0.855, "unit": "µM"}, {"measurement": "GI50", "setting": "IGROV-ET; GI=growth inhibition, read-out: GI50 IGROV-ET", "value": 0.212, "unit": "µM"}, {"measurement": "CC50", "setting": "IGROV-ET; cell killing (cytotoxic effect), read-out: LC50 IGROV-ET", "value": 6.09, "unit": "µM"}, {"measurement": "IC (TGI)", "setting": "IGROV-ET; total growth inhibition (cytostatic effect), read-out: TGI IGROV-ET", "value": 1.06, "unit": "µM"}, {"measurement": "GI50", "setting": "HeLa; GI=growth inhibition, read-out: GI50 HELA", "value": 0.124, "unit": "µM"}, {"measurement": "CC50", "setting": "HeLa; cell killing (cytotoxic effect), read-out: LC50 HELA", "value": 3.1, "unit": "µM"}, {"measurement": "IC (TGI)", "setting": "HeLa; total growth inhibition (cytostatic effect), read-out: TGI HELA", "value": 1.12, "unit": "µM"}, {"measurement": "GI50", "setting": "HeLa-APL; GI=growth inhibition, read-out: GI50 HELA-APL", "value": 0.31, "unit": "µM"}, {"measurement": "CC50", "setting": "HeLa-APL; cell killing (cytotoxic effect), read-out: LC50 HELA-APL", "value": 5.55, "unit": "µM"}, {"measurement": "IC (TGI)", "setting": "HeLa-APL; total growth inhibition (cytostatic effect), read-out: TGI HELA-APL", "value": 1.71, "unit": "µM"}, {"measurement": "GI50", "setting": "PANC-1; GI=growth inhibition, read-out: GI50 PANC-1", "value": 0.418, "unit": "µM"}, {"measurement": "CC50", "setting": "PANC-1; cell killing (cytotoxic effect), read-out: LC50 PANC-1", "value": 4.51, "unit": "µM"}, {"measurement": "IC (TGI)", "setting": "PANC-1; total growth inhibition (cytostatic effect), read-out: TGI PANC-1", "value": 1.64, "unit": "µM"}]}
